Measurements as given in patent US12077503B2, “Substituted cyclic amides and their use as herbicides” (FMC CORPORATION, priority 2015, dated 2024).

What was measured:
Format in all cases: in vivo
corn (Zea mays) [1] = assay: Test G Pre-Emergence Protocol; settings: Zea mays, pre-emergence, 312 h, evaluated after 13 days; for plant injury at 15.625 g/ha: 15.625 g ai/ha; for plant injury at 15.625 g/ha / plant injury at 250 g/ha: read-out: Corn damage rating (100=total damage to plant; 0=no damage to plant); for plant injury at 62.5 g/ha: 62.5 g ai/ha, 100=total damage to plant, 0=no damage to plant, read-out: Corn damage rating; for plant injury at 250 g/ha: 250 g ai/ha
Procedure, shortened: (§1)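 Test compound in 0.5% Tween 20 acetone/water (50:50) was applied at three rates (15.625, 62.5, 250 g/ha) to soil sown one day earlier. After 13 days plants were scored for injury, where 0 means unaffected and 100 means completely damaged.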

[2] = tested on: redroot pigweed (Amaranthus retroflexus); assay: Test G Pre-Emergence Protocol; settings: Amaranthus retroflexus, pre-emergence, 312 h, evaluated after 13 days; for pest or weed control at 15.625 g/ha: 15.625 g ai/ha; for pest or weed control at 15.625 g/ha / pest or weed control at 250 g/ha: read-out: Pigweed, Redroot damage rating (100=total damage to plant; 0=no damage to plant); for pest or weed control at 62.5 g/ha: 62.5 g ai/ha, 100=total damage to plant, 0=no damage to plant, read-out: Pigweed, Redroot damage rating; for pest or weed control at 250 g/ha: 250 g ai/ha
Procedure, shortened: as §1

[3] = tested on: ivy-leaved morning glory (Ipomoea hederacea); assay: Test G Pre-Emergence Protocol; settings: Ipomoea, pre-emergence, 312 h, evaluated after 13 days; for pest or weed control at 15.625 g/ha: 15.625 g ai/ha; for pest or weed control at 15.625 g/ha / pest or weed control at 250 g/ha: read-out: Morningglory, Ivy-leaved damage rating (100=total damage to plant; 0=no damage to plant); for pest or weed control at 62.5 g/ha: 62.5 g ai/ha, 100=total damage to plant, 0=no damage to plant, read-out: Morningglory, Ivy-leaved damage rating; for pest or weed control at 250 g/ha: 250 g ai/ha
Procedure, shortened: as §1

[4] = tested on: velvetleaf (Abutilon theophrasti); assay: Test G Pre-Emergence Protocol; settings: Abutilon theophrasti, pre-emergence, 312 h, evaluated after 13 days; for pest or weed control at 15.625 g/ha: 15.625 g ai/ha; for pest or weed control at 15.625 g/ha / pest or weed control at 250 g/ha: read-out: Velvetleaf damage rating (100=total damage to plant; 0=no damage to plant); for pest or weed control at 62.5 g/ha: 62.5 g ai/ha, 100=total damage to plant, 0=no damage to plant, read-out: Velvetleaf damage rating; for pest or weed control at 250 g/ha: 250 g ai/ha
Procedure, shortened: as §1

[5] = tested on: giant foxtail (Setaria faberi); assay: Test G Pre-Emergence Protocol; settings: Setaria faberi, pre-emergence, 312 h, evaluated after 13 days; for pest or weed control at 15.625 g/ha: 15.625 g ai/ha; for pest or weed control at 15.625 g/ha / pest or weed control at 250 g/ha: read-out: Foxtail, Giant damage rating (100=total damage to plant; 0=no damage to plant); for pest or weed control at 62.5 g/ha: 62.5 g ai/ha, 100=total damage to plant, 0=no damage to plant, read-out: Foxtail, Giant damage rating; for pest or weed control at 250 g/ha: 250 g ai/ha
Procedure, shortened: as §1

[6] = tested on: barnyardgrass (Echinochloa crus-galli); assay: Test G Pre-Emergence Protocol; settings: Echinochloa crus-galli, pre-emergence, 312 h, evaluated after 13 days; for pest or weed control at 15.625 g/ha: 15.625 g ai/ha; for pest or weed control at 15.625 g/ha / pest or weed control at 250 g/ha: read-out: Barnyardgrass damage rating (100=total damage to plant; 0=no damage to plant); for pest or weed control at 62.5 g/ha: 62.5 g ai/ha, 100=total damage to plant, 0=no damage to plant, read-out: Barnyardgrass damage rating; for pest or weed control at 250 g/ha: 250 g ai/ha
Procedure, shortened: as §1

corn (Zea mays) [7] = assay: Test G Post-Emergence Protocol; settings: Zea mays, post-emergence, 312 h, read-out: Corn damage rating; for plant injury at 15.625 g/ha: 15.625 g ai/ha, evaluated after 13 days (100=total damage to plant; 0=no damage to plant); for plant injury at 62.5 g/ha: 62.5 g ai/ha; for plant injury at 62.5 g/ha / plant injury at 250 g/ha: evaluated after 13 days, 100=total damage to plant, 0=no damage to plant; for plant injury at 250 g/ha: 250 g ai/ha
Procedure, shortened: (§2)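 Scores run 0 (no damage) to 100 (total damage) and were taken 13 days after spraying. Plants had been raised in pots for 8 days under glasshouse control (24/16 °C, 14 h photoperiod, 65% humidity) and then treated at 15.625, 62.5 or 250 g/ha.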

[8] = tested on: redroot pigweed (Amaranthus retroflexus); assay: Test G Post-Emergence Protocol; settings: Amaranthus retroflexus, post-emergence, 312 h, read-out: Pigweed, Redroot damage rating; for pest or weed control at 15.625 g/ha: 15.625 g ai/ha, evaluated after 13 days (100=total damage to plant; 0=no damage to plant); for pest or weed control at 62.5 g/ha: 62.5 g ai/ha; for pest or weed control at 62.5 g/ha / pest or weed control at 250 g/ha: evaluated after 13 days, 100=total damage to plant, 0=no damage to plant; for pest or weed control at 250 g/ha: 250 g ai/ha
Procedure, shortened: as §2

[9] = tested on: ivy-leaved morning glory (Ipomoea hederacea); assay: Test G Post-Emergence Protocol; settings: Ipomoea, post-emergence, 312 h, read-out: Morningglory, Ivy-leaved damage rating; for pest or weed control at 15.625 g/ha: 15.625 g ai/ha, evaluated after 13 days (100=total damage to plant; 0=no damage to plant); for pest or weed control at 62.5 g/ha: 62.5 g ai/ha; for pest or weed control at 62.5 g/ha / pest or weed control at 250 g/ha: evaluated after 13 days, 100=total damage to plant, 0=no damage to plant; for pest or weed control at 250 g/ha: 250 g ai/ha
Procedure, shortened: as §2

[10] = tested on: velvetleaf (Abutilon theophrasti); assay: Test G Post-Emergence Protocol; settings: Abutilon theophrasti, post-emergence, 312 h, read-out: Velvetleaf damage rating; for pest or weed control at 15.625 g/ha: 15.625 g ai/ha, evaluated after 13 days (100=total damage to plant; 0=no damage to plant); for pest or weed control at 62.5 g/ha: 62.5 g ai/ha; for pest or weed control at 62.5 g/ha / pest or weed control at 250 g/ha: evaluated after 13 days, 100=total damage to plant, 0=no damage to plant; for pest or weed control at 250 g/ha: 250 g ai/ha
Procedure, shortened: as §2

[11] = tested on: giant foxtail (Setaria faberi); assay: Test G Post-Emergence Protocol; settings: Setaria faberi, post-emergence, 312 h, read-out: Foxtail, Giant damage rating; for pest or weed control at 15.625 g/ha: 15.625 g ai/ha, evaluated after 13 days (100=total damage to plant; 0=no damage to plant); for pest or weed control at 62.5 g/ha: 62.5 g ai/ha; for pest or weed control at 62.5 g/ha / pest or weed control at 250 g/ha: evaluated after 13 days, 100=total damage to plant, 0=no damage to plant; for pest or weed control at 250 g/ha: 250 g ai/ha
Procedure, shortened: as §2

[12] = tested on: barnyardgrass (Echinochloa crus-galli); assay: Test G Post-Emergence Protocol; settings: Echinochloa crus-galli, post-emergence, 312 h, read-out: Barnyardgrass damage rating; for pest or weed control at 15.625 g/ha: 15.625 g ai/ha, evaluated after 13 days (100=total damage to plant; 0=no damage to plant); for pest or weed control at 62.5 g/ha: 62.5 g ai/ha; for pest or weed control at 62.5 g/ha / pest or weed control at 250 g/ha: evaluated after 13 days, 100=total damage to plant, 0=no damage to plant; for pest or weed control at 250 g/ha: 250 g ai/ha
Procedure, shortened: as §2

CCc1cc([C@@H]2CN(C)C(=O)[C@H]2C(=O)Nc2cccc(F)c2C)ccc1Cl (racemic) [Compound 1804]
70%: plant injury at 250 g/ha (corn (Zea mays) [7]) | pest or weed control at 62.5 g/ha [11]
30%: pest or weed control at 250 g/ha [2] | pest or weed control at 250 g/ha [4]
60%: plant injury at 250 g/ha (corn (Zea mays) [1]) | pest or weed control at 250 g/ha [9] | pest or weed control at 250 g/ha [12]
90%: pest or weed control at 62.5 g/ha [5] | pest or weed control at 250 g/ha [5] | pest or weed control at 250 g/ha [6]
0%: plant injury at 15.625 g/ha (corn (Zea mays) [1]) | plant injury at 62.5 g/ha (corn (Zea mays) [1]) | pest or weed control at 15.625 g/ha [2] | pest or weed control at 15.625 g/ha [3] | pest or weed control at 62.5 g/ha [3] | pest or weed control at 15.625 g/ha [4] | pest or weed control at 15.625 g/ha [6] | plant injury at 15.625 g/ha (corn (Zea mays) [7]) | plant injury at 62.5 g/ha (corn (Zea mays) [7]) | pest or weed control at 15.625 g/ha [8] | pest or weed control at 62.5 g/ha [8] | pest or weed control at 15.625 g/ha [9] | pest or weed control at 15.625 g/ha [10] | pest or weed control at 15.625 g/ha [11] | pest or weed control at 15.625 g/ha [12]
10%: pest or weed control at 250 g/ha [3] | pest or weed control at 62.5 g/ha [4] | pest or weed control at 250 g/ha [8] | pest or weed control at 62.5 g/ha [10] | pest or weed control at 250 g/ha [10]
50%: pest or weed control at 15.625 g/ha [5] | pest or weed control at 62.5 g/ha [9] | pest or weed control at 62.5 g/ha [12]
80%: pest or weed control at 62.5 g/ha [6] | pest or weed control at 250 g/ha [11]
20%: pest or weed control at 62.5 g/ha [2]

CN1C[C@H](c2cccc(C(F)(F)F)c2)[C@@H](C(=O)Nc2cccc(O)c2F)C1=O (racemic) [Compound 1806]
30%: pest or weed control at 250 g/ha [5]
0%: plant injury at 15.625 g/ha (corn (Zea mays) [1]) | plant injury at 62.5 g/ha (corn (Zea mays) [1]) | plant injury at 250 g/ha (corn (Zea mays) [1]) | pest or weed control at 15.625 g/ha [2] | pest or weed control at 62.5 g/ha [2] | pest or weed control at 15.625 g/ha [3] | pest or weed control at 62.5 g/ha [3] | pest or weed control at 250 g/ha [3] | pest or weed control at 15.625 g/ha [4] | pest or weed control at 62.5 g/ha [4] | pest or weed control at 250 g/ha [4] | pest or weed control at 15.625 g/ha [6] | plant injury at 15.625 g/ha (corn (Zea mays) [7]) | plant injury at 62.5 g/ha (corn (Zea mays) [7]) | pest or weed control at 15.625 g/ha [8] | pest or weed control at 62.5 g/ha [8] | pest or weed control at 250 g/ha [8] | pest or weed control at 15.625 g/ha [9] | pest or weed control at 62.5 g/ha [9] | pest or weed control at 250 g/ha [9] | pest or weed control at 15.625 g/ha [10] | pest or weed control at 62.5 g/ha [10] | pest or weed control at 250 g/ha [10] | pest or weed control at 15.625 g/ha [11] | pest or weed control at 15.625 g/ha [12]
20%: pest or weed control at 15.625 g/ha [5] | pest or weed control at 62.5 g/ha [5] | pest or weed control at 250 g/ha [6] | pest or weed control at 62.5 g/ha [12]
10%: pest or weed control at 250 g/ha [2] | pest or weed control at 62.5 g/ha [6]
60%: pest or weed control at 62.5 g/ha [11] | pest or weed control at 250 g/ha [11]
50%: pest or weed control at 250 g/ha [12]
40%: plant injury at 250 g/ha (corn (Zea mays) [7])
